In ChEMBL document CHEMBL3994585, “Synthesis of α-santonin derivatives for diminutive effect on T and B-cell proliferation and their structure activity relationships” (Eur J Med Chem, 2017) one finds Activity and inhibition data, which are given here for six molecules.

The structures appear in SMILES notation.

For orientation: inhibition means the drop in the measured response relative to a control, in per cent. A high value points to a response far below the control.

Series [1] has as its system T-cell. The series is described as follows: Immunosuppressive activity in Balb/c mouse T cells assessed as ConA-induced cell proliferation at 100 uM after 48 hrs by MTT assay relative to control. Type of series: functional. In general terms: Tetrazolium dyes change colour on reduction, which living cells bring about.
In series [2] the test system is T-cell. The series is described as follows: Immunosuppressive activity in Balb/c mouse T cells assessed as ConA-induced cell proliferation at 10 uM after 48 hrs by MTT assay relative to control. Type of series: functional.
The subject of series [3] is T-cell. Kind of series: Immunosuppressive activity in Balb/c mouse T cells assessed as ConA-induced cell proliferation at 1 uM after 48 hrs by MTT assay relative to control. The series is classed as functional.
In series [4] the test system is B-cell. The series is described as follows: Immunosuppressive activity in Balb/c mouse B cells assessed as LPS-induced cell proliferation at 100 uM after 48 hrs by MTT assay relative to control. The series is classed as functional.
Series [5] has as its system B-cell. The series is described as follows: Immunosuppressive activity in Balb/c mouse B cells assessed as LPS-induced cell proliferation at 10 uM after 48 hrs by MTT assay relative to control. Type of series: functional.
The subject of series [6] is B-cell. Kind of series: Immunosuppressive activity in Balb/c mouse B cells assessed as LPS-induced cell proliferation at 1 uM after 48 hrs by MTT assay relative to control. Type of series: functional.
Series [7] concerns T-cell. The series is described as follows: Cytotoxicity against Balb/c mouse T cells assessed as reduction in cell proliferation at 100 uM after 48 hrs by MTT assay. The series is classed as cell-based.
Series [8] concerns T-cell. The series is described as follows: Cytotoxicity against Balb/c mouse T cells assessed as reduction in cell proliferation at 10 uM after 48 hrs by MTT assay. The series is classed as cell-based.
In series [9] the test system is T-cell. The series is described as follows: Cytotoxicity against Balb/c mouse T cells assessed as reduction in cell proliferation at 1 uM after 48 hrs by MTT assay. Type of series: cell-based.
Series [10] has as its system B-cell. Kind of series: Cytotoxicity against Balb/c mouse B cells assessed as reduction in cell proliferation at 100 uM after 48 hrs by MTT assay. Type of series: cell-based.
The subject of series [11] is B-cell. Kind of series: Cytotoxicity against Balb/c mouse B cells assessed as reduction in cell proliferation at 10 uM after 48 hrs by MTT assay. Type of series: cell-based.
Series [12] concerns B-cell. Kind of series: Cytotoxicity against Balb/c mouse B cells assessed as reduction in cell proliferation at 1 uM after 48 hrs by MTT assay. The series is classed as cell-based.
For series [13], the target named is Tumor necrosis factor (Homo sapiens) (UniProt P01375). Kind of series: Inhibition of TNFalpha (unknown origin) at 10 uM relative to control.
Sequence of Tumor necrosis factor (Homo sapiens) (P01375 whole entry): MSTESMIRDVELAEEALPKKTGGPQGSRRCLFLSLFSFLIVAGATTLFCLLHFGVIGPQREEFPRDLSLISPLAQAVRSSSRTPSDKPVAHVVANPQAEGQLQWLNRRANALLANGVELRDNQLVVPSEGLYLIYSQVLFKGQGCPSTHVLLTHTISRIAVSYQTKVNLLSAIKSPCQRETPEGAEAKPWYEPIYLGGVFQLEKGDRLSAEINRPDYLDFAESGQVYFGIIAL
Series [14] shares this target. Kind of series: Inhibition of TNFalpha (unknown origin) at 5 uM relative to control.
The target is the same in series [15]. Kind of series: Inhibition of TNFalpha (unknown origin) at 1 uM relative to control.
Series [16] has the same target. The series is described as follows: Inhibition of TNFalpha (unknown origin) at 10 uM relative to dexamethasone.
Series [17] deals with T-cell. The series is described as follows: Immunostimulant activity in Balb/c mouse T cells assessed as ConA-induced cell proliferation at 10 uM after 48 hrs by MTT assay relative to control. The series is classed as ADME, cell-based.
Series [18] has as its system B-cell. The series is described as follows: Immunostimulant activity in Balb/c mouse B cells assessed as LPS-induced cell proliferation at 1 uM after 48 hrs by MTT assay relative to control. The series is classed as ADME, cell-based.
The test system of series [19] is T-cell. The series is described as follows: Immunostimulant activity in Balb/c mouse T cells assessed as ConA-induced cell proliferation at 100 uM after 48 hrs by MTT assay relative to control. The series is classed as ADME, cell-based.
For series [20], the system named is T-cell. Kind of series: Immunostimulant activity in Balb/c mouse T cells assessed as ConA-induced cell proliferation at 1 uM after 48 hrs by MTT assay relative to control. The series is classed as ADME, cell-based.
Series [21] relates to T-cell. The series is described as follows: Effect on ConA-induced Balb/c mouse T cell proliferation at 10 uM after 48 hrs by MTT assay relative to control. The series is classed as functional.
The test system of series [22] is B-cell. Kind of series: Immunostimulant activity in Balb/c mouse B cells assessed as LPS-induced cell proliferation at 100 uM after 48 hrs by MTT assay relative to control. The series is classed as ADME, cell-based.
Series [23] deals with B-cell. Kind of series: Immunostimulant activity in Balb/c mouse B cells assessed as LPS-induced cell proliferation at 10 uM after 48 hrs by MTT assay relative to control. Type of series: ADME, cell-based.
Series [24] deals with B-cell. The series is described as follows: Effect on LPS-induced Balb/c mouse B cell proliferation at 100 uM after 48 hrs by MTT assay relative to control. Type of series: functional.

For the molecule `CC(=O)Oc1cc(C)c2c(c1C)C1OC(OC(C)=O)C(C)C1CC2` (configuration not stated), the Activity in series [1] was -43.38%; in series [2], -26.47%; in series [3] it was -38.23%; in series [4], -45.05%; in [5], -28.02%; in series [6] it was -50%. Also, the Activity entry in series [7], in [8], in series [9], in series [10], in series [11] and in series [12] was “Toxic” in each case. Moreover, the inhibition in series [13] was 26%; in series [14], 9.9%; in [15], 0.34%; in series [16], 50%.
Regarding `CC1=C2[C@H]3OC(=O)[C@@H](C)[C@@H]3CC[C@@]2(C)C=CC1=O` [SANTONIN], the Activity in series [1] is on record as -5.16%; in series [17], 4.48%; in [3], -36.02%; in series [4] it was -33.62%; in series [5], -24.17%; in series [18] it was 20.35%. Further, the Activity entry in series [7], in series [8], in series [9], in series [10], in [11] and in series [12] was “Non-Toxic” each time. The inhibition was 19% in series [13], 6.2% in [14] and “Below limit of detection” in series [15].
For the molecule `COC(=O)[C@H](C)C1=Cc2c(C)c(OC)cc(C)c2CC1`, the Activity was 22.68% in series [19]; 11.34% in series [20]; 0% in series [21]; 14.15% in series [22]; 23% in [23]; -1.76% in series [6]. The Activity result in [7], in series [8], in series [9], in series [10], in series [11] and in series [12] was “Toxic” in each case.
As to `Cc1c(O)c([N+](=O)[O-])c(C)c2c1[C@@H]1OC(=O)[C@@H](C)[C@@H]1CC2`, the Activity in [19] was 36.08%; in [2], -1.03%; in series [20], 13.4%; in series [24], 0%; in series [5], -30.08%; in series [6] it was -10.61%. Further, the Activity result in series [7], in [8], in series [9], in series [10], in series [11] and in series [12] was “Toxic” throughout.
For the molecule `CCOC(=O)[C@H](C)C1=Cc2c(C)c(O)cc(C)c2CC1`, the Activity is recorded as 22.68% in [19]; 11.34% in [20]; 0% in series [21]; 14.15% in [22]; 23% in series [23]; -1.76% in [6]. In addition, the Activity result in series [7], in series [8], in series [9], in series [10], in series [11] and in [12] was “Toxic” in each case.
As to `Cc1cc(O)c(C)c2c1CC[C@@H]([C@@H](C)C(=O)Nc1ccc(CC#N)cc1)C2`, the Activity in series [1] is -7.35%; in series [2], -30.14%; in series [3] it was -36.02%; in [4] it was -46.7%; in series [5], -39.56%; in series [6], -42.3%. Moreover, the Activity result in series [7], in [8], in series [9], in series [10], in series [11] and in series [12] was “Toxic” in each case. Also, the inhibition in [13] is 17.1%; in series [14], 4.5%; in series [15], “Below limit of detection”.
